In patent US5541116A, “Method for the stabilization of endogenous, physiologically active peptides” (B.R.A.H.M.S. Diagnostica GmbH, priority 1991, dated 1996):
Where two headings read alike, the source gives them in different places. Where a SMILES comes first, the peptide text is derived from it. [ ]: non-standard residue; d: D form. The star is where a group is joined. Sta = CC(C)C[C@H](N)[C@@H](O)CC(=O)O; Isovaleryl = CC(C)CC(=O)*

How the values were obtained:
[1] = test system: endogenous proteases which are active in human serum and plasma; assay: Hydrolysis of 125I-ACTH 1-39 in human serum or EDTA plasma with protease inhibitors (RP-HPLC, radioactivity detection); type: biochemical
[2] = test system: endogenous proteases which are active in human serum and plasma; assay: Variation of inhibitor concentrations to find the minimum needed for adequate protection of the peptides; type: biochemical; settings: in the presence of the other inhibitors; serum or plasma sample
Excerpt: To determine the concentrations of the individual inhibitors which are required for adequate protection of the peptides, in the presence of the other inhibitors, the concentrations were repeatedly varied.

[3] = 125I-ACTH 1-39, inhibitor 100 μM, EDTA plasma, 22° C., 25 h
[4] = 125I-ACTH 1-39, inhibitor 100 μM, serum, 22° C., 18 h
[5] = 125I-ACTH 1-39, inhibitor 1 mM, EDTA plasma, 22° C., 25 h
[6] = 125I-ACTH 1-39, inhibitor 1 mM, serum, 22° C., 18 h

CC(C)C[C@@H](N)[C@H](O)C(=O)N[C@H](C(=O)N[C@H](C(=O)N[C@@H](CC(=O)O)C(=O)O)C(C)C)C(C)C [Amastatin]
% of hydrolysis rate of the control, in EDTA plasma [1, 3]: 3% | % of hydrolysis rate of the control, in serum [1, 4]: 17%

N=C(N)c1ccccc1 [Benzamidine]
% of hydrolysis rate of the control, in EDTA plasma [1, 5]: 80% | % of hydrolysis rate of the control, in serum [1, 6]: 84%

CC(C)C[C@H](NC(=O)[C@@H](O)[C@H](N)Cc1ccccc1)C(=O)O [Bestatin]
% of hydrolysis rate of the control, in EDTA plasma [1, 5]: 27% | % of hydrolysis rate of the control, in serum [1, 6]: 44%

CC(C)C[C@H](NC(=O)N[C@H](C(=O)N[C@@H](CCC(N)=O)C(=O)N[C@@H](C)C=O)[C@@H]1CCNC(=N)N1)C(=O)O [Elastatinal]
% of hydrolysis rate of the control, in EDTA plasma [1, 3]: 100% | % of hydrolysis rate of the control, in serum [1, 4]: 97%

CC(=O)N[C@@H](CC(C)C)C(=O)N[C@@H](CC(C)C)C(=O)N[C@H](C=O)CCCNC(=N)N [Leupeptin]
% of hydrolysis rate of the control, in EDTA plasma [1]: 27 | % of hydrolysis rate of the control, in serum [1]: 41 | minimum concentration present in the sample for effective protection [2]: 50 µM

CCN1C(=O)C=CC1=O [N-Ethylmaleimide]
% of hydrolysis rate of the control, in EDTA plasma ([1]; 125I-ACTH 1-39, inhibitor 2 mM, EDTA plasma, 22° C., 25 h): 54% | % of hydrolysis rate of the control, in serum ([1]; 125I-ACTH 1-39, inhibitor 2 mM, serum, 22° C., 18 h): 48%

CC(C)CC(=O)N[C@H](C(=O)N[C@H](C(=O)N[C@@H](CC(C)C)[C@@H](O)CC(=O)N[C@@H](C)C(=O)N[C@@H](CC(C)C)[C@@H](O)CC(=O)O)C(C)C)C(C)C [Pepstatin] (Isovaleryl-VV[Sta]A[Sta]-OH)
% of hydrolysis rate of the control, in EDTA plasma [1, 3]: 79% | % of hydrolysis rate of the control, in serum [1, 4]: 105%

O=S(=O)(F)Cc1ccccc1 [Phenylmethylsulphonyl fluoride]
% of hydrolysis rate of the control, in EDTA plasma [1]: 100 | % of hydrolysis rate of the control, in serum [1]: 97

CC(C)C[C@H](NP(=O)(O)O[C@@H]1O[C@@H](C)[C@H](O)[C@@H](O)[C@H]1O)C(=O)N[C@@H](Cc1c[nH]c2ccccc12)C(=O)O [Phosphoramidone]
% of hydrolysis rate of the control, in EDTA plasma [1, 5]: 85% | % of hydrolysis rate of the control, in serum [1, 6]: 98%

O=S(=O)(O)c1cc[c]([Hg][Cl])cc1 [p-Choloromercuryphenylsulphonic acid, p-Choloromercury-phenylsulphonic acid]
% of hydrolysis rate of the control, in EDTA plasma [1]: 62 | % of hydrolysis rate of the control, in serum [1]: 94

Antithrombin III
% of hydrolysis rate of the control, in EDTA plasma ([1]; 125I-ACTH 1-39, inhibitor 0.1 unit/ml, EDTA plasma, 22° C., 25 h): 79% | % of hydrolysis rate of the control, in serum ([1]; 125I-ACTH 1-39, inhibitor 0.1 unit/ml, serum, 22° C., 18 h): 107%

Heparin
% of hydrolysis rate of the control, in EDTA plasma ([1]; 125I-ACTH 1-39, inhibitor 5 mg/ml, EDTA plasma, 22° C., 25 h): 103% | % of hydrolysis rate of the control, in serum ([1]; 125I-ACTH 1-39, inhibitor 5 mg/ml, serum, 22° C., 18 h): 126%

B1: Trypsin inhibitor (soybean): soybean trypsin inhibitor (Sigma T-900) (protein, UniProt P01070 25-205, looked up)
Trypsin inhibitor A: DFVLDNEGNPLENGGTYYILSDITAFGGIRAAPTGNERCPLTVVQSRNELDKGIGTIISSPYRIRFIAEGHPLSLKFDSFAVIMLCVGIPTEWSVVEDLPEGPAVKIGENKDAMDGWFRLERVSDDEFNNYKLVFCPQQAEDDKCGDIGISIDHDDGTRRLVVSKNKPLVVQFQKLDKESL
% of hydrolysis rate of the control, in EDTA plasma ([1]; 125I-ACTH 1-39, inhibitor 0.1 mg/ml, EDTA plasma, 22° C., 25 h): 71% | % of hydrolysis rate of the control, in serum ([1]; 125I-ACTH 1-39, inhibitor 0.1 mg/ml, serum, 22° C., 18 h): 78%
